Test results published in US6852751B2, “Difluorobutyric acid metalloprotease inhibitors” (The Procter & Gamble Company, priority 2000, dated 2005).

System: human subject suffering from rheumatoid arthritis
Experiment: Treatment of a human subject with rheumatoid arthritis, oral tablets (Example A)
Format: in vivo
Conditions: tablet with 15 mg compound, three tablets per day orally for 2 years
Method: A tablet composition for oral administration, according to the present invention, is made comprising:
A human subject weighing 60 kg (132 lbs), suffering from rheumatoid arthritis, is treated by a method of this invention. Specifically, for 2 years, a regimen of three tablets per day is administered orally to said subject.

Q: With `COc1ccc(-c2ccc(C(F)(F)CCC(=O)O)cc2)cc1` [Example 1, 4,4-Difluoro-4-(4′-methoxy-biphenyl-4-yl)-butyric Acid] as the compound, how does the “examination at the end of the treatment period: inflammation, mobility, pain” value read?
A: reduced inflammation and improved mobility without concomitant pain
